Laboratory results: article PMC4057759, “Biological Evaluation and 3D-QSAR Studies of Curcumin Analogues as Aldehyde Dehydrogenase 1 Inhibitors” (International Journal of Molecular Sciences, 2014)
Like-named read-outs stand apart in the source and are kept apart here.

What was measured:
baker's yeast ALDH1 = target: T1, baker's yeast ALDH1 (Saccharomyces cerevisiae, UniProt P46367); experiment: In vitro ALDH1 inhibitory assay (propanal oxidation, NAD, OD 340 nm); type: biochemical; conditions: for inhibitory activity on ALDH1 (in words): in vitro
T1 construct: purchased Sigma (St. Louis, MO, USA)
T1 sequence (P46367 25-519): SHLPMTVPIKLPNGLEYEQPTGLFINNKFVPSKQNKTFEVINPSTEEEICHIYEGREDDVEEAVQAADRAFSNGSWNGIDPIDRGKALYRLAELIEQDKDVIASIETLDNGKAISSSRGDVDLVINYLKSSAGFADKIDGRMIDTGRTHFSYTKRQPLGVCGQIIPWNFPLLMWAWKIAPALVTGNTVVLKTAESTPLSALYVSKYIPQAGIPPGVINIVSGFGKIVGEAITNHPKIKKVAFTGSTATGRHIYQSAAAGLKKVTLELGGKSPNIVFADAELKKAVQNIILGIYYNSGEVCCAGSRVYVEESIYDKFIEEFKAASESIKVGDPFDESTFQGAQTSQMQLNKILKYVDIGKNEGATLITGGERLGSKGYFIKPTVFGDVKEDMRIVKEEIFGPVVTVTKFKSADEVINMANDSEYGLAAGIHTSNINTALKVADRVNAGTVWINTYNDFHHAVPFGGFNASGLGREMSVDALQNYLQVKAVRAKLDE
Description: (§1) In vitro ALDH1 inhibitory assay was performed as follows. To a reaction mixture containing 1 mM EDTA, 100 mM KCl, 2 mM NAD, 0.1 M sodium phosphate buffer pH 7.4, 1 U/mg baker’s yeast ALDH1 was added by Multifunction microplatereader (Tecan Infinite 200, TECAN Austria GmbH, Männedorf, Switzerland). The reaction was started by the addition of 1 mM propanal in final volume of 300 μL and the optical density (OD) was read at 340 nm at 0 min (just after the addition of the substrate) and reacted for 5 min. The enzyme activity is expressed as OD/min at 25 °C at the pH 7.4. Results are the average of three experiments done in duplicate. […] The IC50 values in units of μM were transformed in pIC50 (–log IC50). The data was randomly divided into training set (26 samples) and test set (4 samples * carry out external validation).

ALDH1 = target: T2, ALDH1 (Saccharomyces cerevisiae, UniProt P46367); experiment: Kinetic analysis of inhibition of ALDH1 (Lineweaver-Burk plots, propanal); type: biochemical, baker's yeast; conditions: double-reciprocal plots, oxidation of propanal
T2 construct: purchased Sigma (St. Louis, MO, USA)
T2 sequence (P46367 25-519): T1 sequence (P46367 25-519)
Description: as §1, with “Figure 1. […] In vitro” for “In vitro”

Solubility (remark) = type: physicochemical
[1] = 1 mM propanal, 2 mM NAD, pH 7.4, 25 °C, read-out: IC50
[2] = Table 3, experimental activity, read-out: Actual pIC50 (converted)
[3] = Table 1, –log IC50, read-out: pIC50 (converted)

Question: With `COc1cc(/C=C2\CC/C(=C\c3ccc(O)c(OC)c3)C2=O)ccc1O` [Compound 13] as the molecule, how does the IC50 (baker's yeast ALDH1; [1]) read?
Answer: 24.2 µM

Question: And the IC50 (baker's yeast ALDH1; [2])?
Answer: 24 µM

Question: With `COc1cc(/C=C2\CSC/C(=C\c3ccc(O)c(OC)c3)C2=O)ccc1O` [Compound 14] as the molecule, how does the IC50 (baker's yeast ALDH1; [1]) read?
Answer: 31.3 µM

Question: And the IC50 (baker's yeast ALDH1; [2])?
Answer: 31.6 µM

Question: Which IC50 (baker's yeast ALDH1; [1]) does the source give for `COc1cc(/C=C2\COC/C(=C\c3cc(F)c(O)c(OC)c3)C2=O)cc(F)c1O` [Compound 16] here?
Answer: 53.2 µM

Question: And the IC50 (baker's yeast ALDH1; [2])?
Answer: 53.7 µM

Question: For `O=C1/C(=C/c2cc(O)cc(O)c2)CC/C1=C\c1cc(O)cc(O)c1` [Compound 12], which IC50 (baker's yeast ALDH1; [1]) is on record?
Answer: 43.2 µM

Question: What about the IC50 (baker's yeast ALDH1; [2]) of the same molecule?
Answer: 43.7 µM

Question: What does the source list for `O=C1/C(=C/c2cc(Br)c(O)c(Br)c2)COC/C1=C\c1cc(Br)c(O)c(Br)c1` [Compound 19]?
Answer: IC50 (baker's yeast ALDH1; [1]): 18.7 µM; IC50 (baker's yeast ALDH1; [2]): 18.6 µM

Question: With `O=C(/C=C/c1ccc(O)c(O)c1)/C=C/c1ccc(O)c(O)c1` [Compound 5] as the molecule, how does the IC50 (baker's yeast ALDH1; [1]) read?
Answer: 23.6 µM

Question: And the IC50 (baker's yeast ALDH1; [2])?
Answer: 23.4 µM

Question: With `CCN(CC)C(=S)SSC(=S)N(CC)CC` [Disufiram, disulfiram, reference compound] as the molecule, how does the IC50 (baker's yeast ALDH1; [1]) read?
Answer: 2.91 µM

Question: Which results are given for `O=C1/C(=C/c2ccc(O)c(O)c2)CSC/C1=C\c1ccc(O)c(O)c1` [Compound 9]?
Answer: IC50 (baker's yeast ALDH1; [1]): 22.7 µM; IC50 (baker's yeast ALDH1; [2]): 22.9 µM

Question: Which IC50 (baker's yeast ALDH1; [1]) does the source give for `COc1cc(/C=C2\COC/C(=C\c3cc(OC)c(O)c(OC)c3)C2=O)cc(OC)c1O` [Compound 15] here?
Answer: 16.6 µM

Question: What about the IC50 (baker's yeast ALDH1; [2]) of the same molecule?
Answer: 16.6 µM

Question: What does the source list for `CN(C)c1ccc(/C=C2\CCC/C(=C\c3ccc(N(C)C)cc3)C2=O)cc1` [Compound 22]?
Answer: IC50 (baker's yeast ALDH1; [1]): 73.5 µM; IC50 (baker's yeast ALDH1; [2]): 74.1 µM

Question: For `O=C(/C=C/c1cc(Br)c(O)c(Br)c1)/C=C/c1cc(Br)c(O)c(Br)c1` [Compound 17], which IC50 (baker's yeast ALDH1; [1]) is on record?
Answer: 25.8 µM

Question: And the IC50 (baker's yeast ALDH1; [2])?
Answer: 25.7 µM

Question: With `O=C1/C(=C/c2ccc(O)cc2)COC/C1=C\c1ccc(O)cc1` [Compound 11] as the molecule, how does the IC50 (baker's yeast ALDH1; [1]) read?
Answer: 39.7 µM

Question: And the IC50 (baker's yeast ALDH1; [3])?
Answer: 38.9 µM

Question: What about the IC50 (baker's yeast ALDH1; [2]) of the same molecule?
Answer: 38.9 µM

Question: For `O=C1/C(=C/c2ccncc2)CSC/C1=C\c1ccncc1` [Compound 26], which IC50 (baker's yeast ALDH1; [1]) is on record?
Answer: 10.6 µM

Question: And the IC50 (baker's yeast ALDH1; [2])?
Answer: 10.7 µM

Question: Which IC50 (baker's yeast ALDH1; [3]) does the source give for `O=C1/C(=C/c2ccccn2)CC/C1=C\c1ccccn1` [Compound 29] here?
Answer: 13.8 µM

Question: What about the IC50 (baker's yeast ALDH1; [2]) of the same molecule?
Answer: 13.8 µM

Question: Which IC50 (baker's yeast ALDH1; Actual pIC50, Table 3, experimental activity) does the source give for `O=C1/C(=C/c2ccc(O)c(O)c2)CCC/C1=C\c1ccc(O)c(O)c1` [Compound 7] here?
Answer: 6.31 µM

Question: And the IC50 (baker's yeast ALDH1; IC50, 1 mM propanal, 2 mM NAD, pH 7.4, 25 °C)?
Answer: 6.5 µM

Question: And the “inhibitory activity on ALDH1 (in words)” value (baker's yeast ALDH1)?
Answer: high inhibitory activity

Question: And the IC50 (baker's yeast ALDH1; pIC50, Table 1, –log IC50)?
Answer: 6.31 µM

Question: With `O=C1/C(=C/c2ccc(O)c(O)c2)CNC/C1=C\c1ccc(O)c(O)c1` [Compound 4] as the molecule, how does the IC50 (baker's yeast ALDH1; [1]) read?
Answer: 39.4 µM

Question: And the IC50 (baker's yeast ALDH1; [2])?
Answer: 39.8 µM

Question: What does the source list for `O=C1/C(=C/c2ccc(Br)cc2)CCC/C1=C\c1ccc(Br)cc1` [Compound 24]?
Answer: IC50 (baker's yeast ALDH1; [1]): 8.2 µM; IC50 (baker's yeast ALDH1; [3]): 8.32 µM; IC50 (baker's yeast ALDH1; [2]): 8.32 µM; inhibitory activity on ALDH1 (in words) (baker's yeast ALDH1): high inhibitory activity; inhibition type (ALDH1): mixed-competitive inhibition type; solubility (Solubility (remark)): not good

Question: Which results are given for `O=C1/C(=C/c2ccc(O)c(O)c2)CC/C1=C\c1ccc(O)c(O)c1` [Compound 6]?
Answer: IC50 (baker's yeast ALDH1; [1]): 3.41 µM; IC50 (baker's yeast ALDH1; [3]): 3.47 µM; inhibitory activity on ALDH1 (in words) (baker's yeast ALDH1): high inhibitory activity; activity relative to curcumin (baker's yeast ALDH1; ratio of IC50 values): over 10 times; inhibition type (ALDH1): mixed-competitive inhibition type

Question: Which results are given for `CN(C)c1ccc(/C=C2\CSC/C(=C\c3ccc(N(C)C)cc3)C2=O)cc1` [Compound 23]?
Answer: IC50 (baker's yeast ALDH1; [1]): 69.4 µM; IC50 (baker's yeast ALDH1; [2]): 69.2 µM

Question: With `O=C1/C(=C/c2ccc(O)c(O)c2)COC/C1=C\c1ccc(O)c(O)c1` [Compound 8] as the molecule, how does the IC50 (baker's yeast ALDH1; [1]) read?
Answer: 7.9 µM

Question: And the IC50 (baker's yeast ALDH1; [2])?
Answer: 7.94 µM

Question: And the “inhibitory activity on ALDH1 (in words)” value (baker's yeast ALDH1)?
Answer: high inhibitory activity

Question: With `COc1cc(/C=C2\CSC/C(=C\c3cc(OC)c(OC)c(OC)c3)C2=O)cc(OC)c1OC` [Compound 21] as the molecule, how does the IC50 (baker's yeast ALDH1; [1]) read?
Answer: 63.1 µM

Question: And the IC50 (baker's yeast ALDH1; [2])?
Answer: 63.1 µM

Question: Which IC50 (baker's yeast ALDH1; [1]) does the source give for `O=C1/C(=C/c2cc(Br)c(O)c(Br)c2)CCC/C1=C\c1cc(Br)c(O)c(Br)c1` [Compound 18] here?
Answer: 17.5 µM

Question: And the IC50 (baker's yeast ALDH1; [2])?
Answer: 17.4 µM

Question: Which IC50 (baker's yeast ALDH1; [1]) does the source give for `COc1cc(/C=C2\CNC/C(=C\c3cc(OC)c(O)c(OC)c3)C2=O)cc(OC)c1O` [Compound 3] here?
Answer: 30 µM

Question: And the IC50 (baker's yeast ALDH1; [2])?
Answer: 30.2 µM

Question: With `O=C1/C(=C/c2ccc(O)cc2)CC/C1=C\c1ccc(O)cc1` [Compound 10] as the molecule, how does the IC50 (baker's yeast ALDH1; [1]) read?
Answer: 54.2 µM

Question: And the IC50 (baker's yeast ALDH1; [2])?
Answer: 63.1 µM

Question: With `O=C1/C(=C/c2cc(Br)c(O)c(Br)c2)CSC/C1=C\c1cc(Br)c(O)c(Br)c1` [Compound 20] as the molecule, how does the IC50 (baker's yeast ALDH1; [1]) read?
Answer: 17.7 µM

Question: And the IC50 (baker's yeast ALDH1; [2])?
Answer: 17.8 µM

Question: For `COc1cc(/C=C/C(=O)CC(=O)/C=C/c2ccc(O)c(OC)c2)ccc1O` [Curcumin], which IC50 (baker's yeast ALDH1; [1]) is on record?
Answer: 36.9 µM

Question: With `O=C1/C(=C/c2cccs2)CC/C1=C\c1cccs1` [Compound 25] as the molecule, how does the IC50 (baker's yeast ALDH1; [1]) read?
Answer: 30.1 µM

Question: And the IC50 (baker's yeast ALDH1; [3])?
Answer: 29.5 µM

Question: And the IC50 (baker's yeast ALDH1; [2])?
Answer: 29.5 µM

Question: For `O=C1/C(=C/c2ccccn2)CCC/C1=C\c1ccccn1` [Compound 30], which IC50 (baker's yeast ALDH1; [1]) is on record?
Answer: 18.4 µM

Question: And the IC50 (baker's yeast ALDH1; [2])?
Answer: 18.2 µM
